# Key:
# [1] = biological target: Ribosomal protein S6 kinase alpha-6 (Homo sapiens) (UniProt Q9UK32); settings: Compound concentration 1000.0 nM
# [2] = biological target: Mitogen-activated protein kinase kinase kinase 4 (Homo sapiens) (UniProt Q9Y6R4); settings: Compound concentration 1000.0 nM
# [3] = biological target: Mitogen-activated protein kinase kinase kinase 3 (Homo sapiens) (UniProt Q99759); settings: Compound concentration 1000.0 nM
# [4] = biological target: Ephrin type-A receptor 4 (Homo sapiens) (UniProt P54764); settings: Compound concentration 1000.0 nM
# [5] = biological target: Tyrosine-protein kinase ITK/TSK (Homo sapiens) (UniProt Q08881); settings: Compound concentration 1000.0 nM
# [6] = biological target: Serine/threonine-protein kinase MRCK beta (Homo sapiens) (UniProt Q9Y5S2); settings: Compound concentration 1000.0 nM
# [7] = test system: Receptor-type tyrosine-protein kinase FLT3 (Homo sapiens), P36888 [D835V]; settings: Compound concentration 1000.0 nM
# [8] = biological target: Serine/threonine-protein kinase 38-like (Homo sapiens) (UniProt Q9Y2H1); settings: Compound concentration 1000.0 nM
# [9] = biological target: Epidermal growth factor receptor (Homo sapiens) (UniProt P00533); settings: Compound concentration 1000.0 nM
# [10] = biological target: Cyclin-dependent kinase 13 (Homo sapiens) (UniProt Q14004); settings: Compound concentration 1000.0 nM
# [11] = biological target: Ephrin type-A receptor 3 (Homo sapiens) (UniProt P29320); settings: Compound concentration 1000.0 nM
# [12] = biological target: Histamine H4 receptor (Homo sapiens) (UniProt Q9H3N8); settings: Compound concentration 10.0 uM
# [13] = biological target: Casein kinase I isoform epsilon (Homo sapiens) (UniProt P49674); settings: Compound concentration 1000.0 nM
# [14] = biological target: High affinity nerve growth factor receptor (Homo sapiens) (UniProt P04629); settings: Compound concentration 1000.0 nM
# Sequence of High affinity nerve growth factor receptor (Homo sapiens) (P04629 33-796 limits assumed): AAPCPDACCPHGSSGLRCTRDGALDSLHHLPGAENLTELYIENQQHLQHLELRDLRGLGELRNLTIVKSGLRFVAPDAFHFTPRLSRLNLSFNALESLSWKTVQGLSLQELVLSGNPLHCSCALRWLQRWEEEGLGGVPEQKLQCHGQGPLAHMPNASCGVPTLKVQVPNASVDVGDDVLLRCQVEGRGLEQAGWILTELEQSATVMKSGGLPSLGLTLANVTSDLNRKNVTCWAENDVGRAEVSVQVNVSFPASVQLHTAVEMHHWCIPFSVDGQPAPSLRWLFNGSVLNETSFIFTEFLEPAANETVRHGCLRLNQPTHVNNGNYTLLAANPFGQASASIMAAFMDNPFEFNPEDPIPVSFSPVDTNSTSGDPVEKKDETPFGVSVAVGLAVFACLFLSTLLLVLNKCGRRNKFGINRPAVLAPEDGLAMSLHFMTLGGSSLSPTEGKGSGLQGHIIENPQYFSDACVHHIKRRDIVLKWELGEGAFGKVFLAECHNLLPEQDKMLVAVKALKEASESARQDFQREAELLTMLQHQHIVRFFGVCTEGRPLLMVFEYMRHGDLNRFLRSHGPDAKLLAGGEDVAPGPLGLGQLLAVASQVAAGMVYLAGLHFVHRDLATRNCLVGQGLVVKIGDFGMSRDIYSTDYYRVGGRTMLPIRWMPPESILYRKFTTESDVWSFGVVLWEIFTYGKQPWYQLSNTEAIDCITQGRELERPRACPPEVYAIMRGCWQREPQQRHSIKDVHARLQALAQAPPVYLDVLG
# [15] = biological target: RAC-beta serine/threonine-protein kinase (Homo sapiens) (UniProt P31751); settings: Compound concentration 1000.0 nM
# Sequence of RAC-beta serine/threonine-protein kinase (Homo sapiens) (P31751 whole entry): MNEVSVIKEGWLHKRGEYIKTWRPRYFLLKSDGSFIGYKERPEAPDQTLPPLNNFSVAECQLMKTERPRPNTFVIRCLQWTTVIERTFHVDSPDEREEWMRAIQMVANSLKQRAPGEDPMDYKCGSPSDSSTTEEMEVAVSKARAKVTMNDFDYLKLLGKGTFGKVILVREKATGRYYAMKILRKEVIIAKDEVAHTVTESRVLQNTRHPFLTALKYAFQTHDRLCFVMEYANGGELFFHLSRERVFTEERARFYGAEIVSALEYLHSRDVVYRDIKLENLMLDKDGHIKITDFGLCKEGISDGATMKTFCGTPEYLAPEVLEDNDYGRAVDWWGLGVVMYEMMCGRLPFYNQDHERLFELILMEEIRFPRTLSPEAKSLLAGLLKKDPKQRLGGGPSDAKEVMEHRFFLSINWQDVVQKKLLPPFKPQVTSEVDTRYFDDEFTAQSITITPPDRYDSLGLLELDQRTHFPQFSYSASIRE
# [16] = biological target: Tyrosine-protein kinase JAK1 (Homo sapiens) (UniProt P23458); settings: Compound concentration 1000.0 nM
# [17] = biological target: Cyclin-dependent kinase 4 (Homo sapiens) (UniProt P11802); settings: Compound concentration 1000.0 nM
# [18] = biological target: Serine/threonine-protein kinase WNK2 (Homo sapiens) (UniProt Q9Y3S1); settings: Compound concentration 1000.0 nM
# [19] = biological target: Mitogen-activated protein kinase 7 (Homo sapiens) (UniProt Q13164); settings: Compound concentration 1000.0 nM
# [20] = biological target: Serine/threonine-protein kinase PRP4 homolog (Homo sapiens) (UniProt Q13523); settings: Compound concentration 1000.0 nM
# [21] = biological target: 5-hydroxytryptamine receptor 1D (Homo sapiens) (UniProt P28221); settings: Compound concentration 10.0 uM
# Sequence of 5-hydroxytryptamine receptor 1D (Homo sapiens) (P28221 whole entry): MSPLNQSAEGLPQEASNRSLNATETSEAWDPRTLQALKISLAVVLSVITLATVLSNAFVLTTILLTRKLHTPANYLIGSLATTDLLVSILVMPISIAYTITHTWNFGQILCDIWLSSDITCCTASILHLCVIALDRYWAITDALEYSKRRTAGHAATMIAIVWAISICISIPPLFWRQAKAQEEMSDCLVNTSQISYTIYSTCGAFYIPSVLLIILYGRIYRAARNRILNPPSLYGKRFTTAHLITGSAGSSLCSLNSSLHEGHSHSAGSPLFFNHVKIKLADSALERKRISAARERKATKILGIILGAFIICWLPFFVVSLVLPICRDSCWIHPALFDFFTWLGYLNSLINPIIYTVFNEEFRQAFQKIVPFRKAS
# [22] = biological target: 5-hydroxytryptamine receptor 2B (Homo sapiens) (UniProt P41595); settings: Compound concentration 10.0 uM
# [23] = biological target: Ephrin type-A receptor 8 (Homo sapiens) (UniProt P29322); settings: Compound concentration 1000.0 nM
# Sequence of Ephrin type-A receptor 8 (Homo sapiens) (P29322 whole entry): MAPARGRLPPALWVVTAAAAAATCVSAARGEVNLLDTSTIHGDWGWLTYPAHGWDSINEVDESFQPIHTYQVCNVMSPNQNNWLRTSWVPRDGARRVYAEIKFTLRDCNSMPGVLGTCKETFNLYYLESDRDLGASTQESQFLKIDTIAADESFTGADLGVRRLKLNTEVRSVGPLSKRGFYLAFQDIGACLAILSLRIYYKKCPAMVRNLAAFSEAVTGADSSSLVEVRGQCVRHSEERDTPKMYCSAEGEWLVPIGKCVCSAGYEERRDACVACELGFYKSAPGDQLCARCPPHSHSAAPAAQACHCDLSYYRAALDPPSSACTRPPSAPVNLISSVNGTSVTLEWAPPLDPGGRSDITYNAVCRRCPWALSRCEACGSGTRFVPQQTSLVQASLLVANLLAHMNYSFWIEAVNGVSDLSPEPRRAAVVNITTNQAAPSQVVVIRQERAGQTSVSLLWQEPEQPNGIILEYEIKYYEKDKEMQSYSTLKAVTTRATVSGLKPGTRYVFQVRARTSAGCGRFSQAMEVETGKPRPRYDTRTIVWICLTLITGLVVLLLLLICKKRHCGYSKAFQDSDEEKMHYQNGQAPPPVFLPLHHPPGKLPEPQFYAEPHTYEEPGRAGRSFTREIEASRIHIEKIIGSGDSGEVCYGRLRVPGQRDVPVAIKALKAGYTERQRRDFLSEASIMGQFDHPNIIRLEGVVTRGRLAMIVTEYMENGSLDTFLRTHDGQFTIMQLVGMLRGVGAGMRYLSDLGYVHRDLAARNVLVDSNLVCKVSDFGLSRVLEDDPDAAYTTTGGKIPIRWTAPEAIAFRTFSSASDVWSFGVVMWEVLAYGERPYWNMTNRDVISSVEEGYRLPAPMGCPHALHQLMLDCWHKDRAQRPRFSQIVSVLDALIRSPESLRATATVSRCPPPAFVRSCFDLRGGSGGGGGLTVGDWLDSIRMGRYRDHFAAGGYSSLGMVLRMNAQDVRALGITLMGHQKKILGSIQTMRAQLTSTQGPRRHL
# [24] = biological target: 5-hydroxytryptamine receptor 1B (Homo sapiens) (UniProt P28222); settings: Compound concentration 10.0 uM
# Sequence of 5-hydroxytryptamine receptor 1B (Homo sapiens) (P28222 whole entry): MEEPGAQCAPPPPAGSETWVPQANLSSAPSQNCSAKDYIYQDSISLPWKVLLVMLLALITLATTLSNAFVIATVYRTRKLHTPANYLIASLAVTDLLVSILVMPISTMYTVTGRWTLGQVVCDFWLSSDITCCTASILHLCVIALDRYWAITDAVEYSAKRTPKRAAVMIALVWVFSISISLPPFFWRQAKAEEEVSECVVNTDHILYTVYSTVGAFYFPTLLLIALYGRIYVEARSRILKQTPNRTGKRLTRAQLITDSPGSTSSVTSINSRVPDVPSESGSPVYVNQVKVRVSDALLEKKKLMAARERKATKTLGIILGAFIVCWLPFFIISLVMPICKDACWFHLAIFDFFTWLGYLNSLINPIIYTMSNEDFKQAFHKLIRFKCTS
# [25] = biological target: Serine/threonine-protein kinase SIK1 (Homo sapiens) (UniProt P57059); settings: Compound concentration 1000.0 nM
# [26] = biological target: Serine/threonine-protein kinase OSR1 (Homo sapiens) (UniProt O95747); settings: Compound concentration 1000.0 nM
# [27] = test system: Mast/stem cell growth factor receptor Kit (Homo sapiens), P10721 [V559D,T670I]; settings: Compound concentration 1000.0 nM
# [28] = biological target: Sigma non-opioid intracellular receptor 1 (Homo sapiens) (UniProt Q99720); settings: Compound concentration 10.0 uM
# [29] = biological target: Tyrosine-protein kinase CSK (Homo sapiens) (UniProt P41240); settings: Compound concentration 1000.0 nM
# Sequence of Tyrosine-protein kinase CSK (Homo sapiens) (P41240 2-450 limits assumed): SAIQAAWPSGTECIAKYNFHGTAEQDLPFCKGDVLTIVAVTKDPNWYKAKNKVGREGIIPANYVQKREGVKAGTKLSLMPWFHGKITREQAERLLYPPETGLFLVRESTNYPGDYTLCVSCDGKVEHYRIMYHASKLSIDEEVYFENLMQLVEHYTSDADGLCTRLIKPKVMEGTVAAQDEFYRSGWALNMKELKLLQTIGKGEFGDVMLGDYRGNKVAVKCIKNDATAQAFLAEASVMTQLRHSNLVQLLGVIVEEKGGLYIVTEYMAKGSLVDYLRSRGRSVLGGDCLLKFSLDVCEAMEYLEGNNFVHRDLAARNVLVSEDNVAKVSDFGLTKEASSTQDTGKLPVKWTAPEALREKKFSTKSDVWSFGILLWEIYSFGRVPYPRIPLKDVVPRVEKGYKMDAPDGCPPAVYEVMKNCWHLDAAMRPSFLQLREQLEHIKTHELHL
# [30] = biological target: Ribosomal protein S6 kinase beta-1 (Homo sapiens) (UniProt P23443); settings: Compound concentration 1000.0 nM
# Sequence of Ribosomal protein S6 kinase beta-1 (Homo sapiens) (P23443 whole entry, looked up): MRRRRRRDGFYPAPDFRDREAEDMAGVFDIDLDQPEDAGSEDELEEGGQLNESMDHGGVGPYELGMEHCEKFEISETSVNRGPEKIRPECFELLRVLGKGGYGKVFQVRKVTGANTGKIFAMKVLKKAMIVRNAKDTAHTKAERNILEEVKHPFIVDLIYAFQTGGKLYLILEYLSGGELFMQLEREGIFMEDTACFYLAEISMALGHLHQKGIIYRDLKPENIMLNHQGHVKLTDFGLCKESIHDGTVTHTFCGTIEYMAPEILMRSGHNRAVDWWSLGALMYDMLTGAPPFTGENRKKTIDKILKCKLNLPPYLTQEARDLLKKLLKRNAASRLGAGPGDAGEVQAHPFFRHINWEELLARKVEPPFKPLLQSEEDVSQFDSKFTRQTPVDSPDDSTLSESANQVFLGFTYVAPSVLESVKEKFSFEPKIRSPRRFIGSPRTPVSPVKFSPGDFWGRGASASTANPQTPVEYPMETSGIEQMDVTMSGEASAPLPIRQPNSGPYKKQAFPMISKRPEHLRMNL
# [31] = biological target: Serine/threonine-protein kinase PLK1 (Homo sapiens) (UniProt P53350); settings: Compound concentration 1000.0 nM
# Sequence of Serine/threonine-protein kinase PLK1 (Homo sapiens) (P53350 whole entry): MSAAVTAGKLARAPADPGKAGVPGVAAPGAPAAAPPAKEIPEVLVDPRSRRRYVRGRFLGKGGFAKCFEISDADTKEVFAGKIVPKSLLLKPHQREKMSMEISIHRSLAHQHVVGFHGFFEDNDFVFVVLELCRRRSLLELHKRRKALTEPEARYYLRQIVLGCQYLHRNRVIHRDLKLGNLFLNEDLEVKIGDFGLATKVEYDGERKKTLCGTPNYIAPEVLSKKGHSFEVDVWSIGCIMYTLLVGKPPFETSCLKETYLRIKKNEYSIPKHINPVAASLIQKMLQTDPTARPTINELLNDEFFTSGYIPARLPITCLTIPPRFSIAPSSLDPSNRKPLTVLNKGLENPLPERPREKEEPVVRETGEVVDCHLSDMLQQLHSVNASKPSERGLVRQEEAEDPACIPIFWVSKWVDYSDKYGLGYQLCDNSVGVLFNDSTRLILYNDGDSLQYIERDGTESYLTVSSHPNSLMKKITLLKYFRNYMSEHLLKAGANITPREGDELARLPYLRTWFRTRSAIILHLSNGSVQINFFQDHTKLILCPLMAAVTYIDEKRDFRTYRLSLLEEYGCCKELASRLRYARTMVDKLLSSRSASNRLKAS
# [32] = test system: Epidermal growth factor receptor (Homo sapiens), P00533 [L861Q]; settings: Compound concentration 1000.0 nM
# [33] = biological target: Death-associated protein kinase 1 (Homo sapiens) (UniProt P53355); settings: Compound concentration 1000.0 nM
# [34] = biological target: Serine/threonine-protein kinase 38 (Homo sapiens) (UniProt Q15208); settings: Compound concentration 1000.0 nM
# [35] = biological target: Ephrin type-B receptor 3 (Homo sapiens) (UniProt P54753); settings: Compound concentration 1000.0 nM
# [36] = biological target: Cyclin-dependent kinase 8 (Homo sapiens) (UniProt P49336); settings: Compound concentration 1000.0 nM
# [37] = biological target: Mitogen-activated protein kinase 14 (Homo sapiens) (UniProt Q16539); settings: Compound concentration 1000.0 nM
# Sequence of Mitogen-activated protein kinase 14 (Homo sapiens) (Q16539 whole entry): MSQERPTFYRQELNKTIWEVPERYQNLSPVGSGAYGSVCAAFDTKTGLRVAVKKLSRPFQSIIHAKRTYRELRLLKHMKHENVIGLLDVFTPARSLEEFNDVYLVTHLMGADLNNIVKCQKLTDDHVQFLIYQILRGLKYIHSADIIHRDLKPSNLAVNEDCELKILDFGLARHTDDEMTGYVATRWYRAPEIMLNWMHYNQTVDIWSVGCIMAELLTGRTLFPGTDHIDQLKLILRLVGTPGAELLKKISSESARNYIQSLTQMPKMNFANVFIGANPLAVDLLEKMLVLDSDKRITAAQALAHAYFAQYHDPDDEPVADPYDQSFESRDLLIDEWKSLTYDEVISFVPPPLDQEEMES
# [38] = test system: ALK tyrosine kinase receptor (Homo sapiens), Q9UM73 [C1156Y]; settings: Compound concentration 1000.0 nM
# [39] = test system: Phosphatidylinositol 4,5-bisphosphate 3-kinase catalytic subunit alpha isoform (Homo sapiens), P42336 [E545K]; settings: Compound concentration 1000.0 nM
# [40] = biological target: Receptor-type tyrosine-protein kinase FLT3 (Homo sapiens) (UniProt P36888); settings: Compound concentration 1000.0 nM
# [41] = biological target: Dual serine/threonine and tyrosine protein kinase (Homo sapiens) (UniProt Q6XUX3); settings: Compound concentration 1000.0 nM
# [42] = biological target: BDNF/NT-3 growth factors receptor (Homo sapiens) (UniProt Q16620); settings: Compound concentration 1000.0 nM
# [43] = biological target: Serine/threonine-protein kinase Nek9 (Homo sapiens) (UniProt Q8TD19); settings: Compound concentration 1000.0 nM
# [44] = biological target: 5'-AMP-activated protein kinase catalytic subunit alpha-1 (Homo sapiens) (UniProt Q13131); settings: Compound concentration 1000.0 nM
# [45] = biological target: cAMP-dependent protein kinase catalytic subunit alpha (Homo sapiens) (UniProt P17612); settings: Compound concentration 1000.0 nM
smiles,measurement,setting,value
Cc1cc(-n2nc(Cc3cc(F)cc(C(F)(F)F)c3)nc2C)ccc1C(N)=O [TP-024],residual activity,[1],100%
same,residual activity,[2],98%
same,residual activity,[3],94%
same,residual activity,[4],96%
same,residual activity,[5],93%
same,residual activity,[6],100%
same,residual activity,[7],100%
same,residual activity,[8],49%
same,residual activity,[9],100%
same,residual activity,[10],100%
same,residual activity,[11],94%
same,inhibition,[12],1.73%
same,residual activity,[13],100%
same,residual activity,[14],97%
same,residual activity,[15],100%
same,residual activity,[16],100%
same,residual activity,[17],100%
same,residual activity,[18],100%
same,residual activity,[19],100%
same,residual activity,[20],54%
same,inhibition,[21],12.5%
same,inhibition,[22],-2.51%
same,residual activity,[23],100%
same,inhibition,[24],13.8%
same,residual activity,[25],100%
same,residual activity,[26],91%
same,residual activity,[27],100%
same,inhibition,[28],5.85%
same,residual activity,[29],97%
same,residual activity,[30],100%
same,residual activity,[31],100%
same,residual activity,[32],100%
same,residual activity,[33],99%
same,residual activity,[34],83%
same,residual activity,[35],100%
same,residual activity,[36],97%
same,residual activity,[37],95%
same,residual activity,[38],100%
same,residual activity,[39],71%
same,residual activity,[40],100%
same,residual activity,[41],97%
same,residual activity,[42],98%
same,residual activity,[43],100%
same,residual activity,[44],100%
same,residual activity,[45],100%
Cc1nc(Cc2cccc(C(F)(F)F)c2)sc1-c1ccc(C(N)=O)nc1 [TP-024n],residual activity,[1],100%
same,residual activity,[2],72%
same,residual activity,[3],97%
same,residual activity,[4],100%
same,residual activity,[5],100%
same,residual activity,[6],39%
same,residual activity,[7],100%
same,residual activity,[8],44%
same,residual activity,[9],100%
same,residual activity,[10],100%
same,residual activity,[11],88%
same,inhibition,[12],7.74%
same,residual activity,[13],100%
same,residual activity,[14],64%
same,residual activity,[15],81%
same,residual activity,[16],86%
same,residual activity,[17],90%
same,residual activity,[18],100%
same,residual activity,[19],88%
same,residual activity,[20],70%
same,inhibition,[21],8.49%
same,inhibition,[22],33.7%
same,residual activity,[23],100%
same,inhibition,[24],7.99%
same,residual activity,[25],100%
same,residual activity,[26],100%
same,residual activity,[27],91%
same,inhibition,[28],11.7%
same,residual activity,[29],88%
same,residual activity,[30],83%
same,residual activity,[31],100%
same,residual activity,[32],100%
same,residual activity,[33],100%
same,residual activity,[34],81%
same,residual activity,[35],100%
same,residual activity,[36],100%
same,residual activity,[37],100%
same,residual activity,[38],68%
same,residual activity,[39],77%
same,residual activity,[40],87%
same,residual activity,[41],78%
same,residual activity,[42],84%
same,residual activity,[43],100%
same,residual activity,[44],100%
same,residual activity,[45],75%

# Source: ChEMBL document CHEMBL4507305, “Data for DCP probe TP-024” (2021)
